Measured values reported in PMC10066365, “Nemacol is a small molecule inhibitor of C. elegans vesicular acetylcholine transporter with anthelmintic potential” (Nature Communications, 2023).
Several values for one entry are separate records, joined by “and”; a condition that tells them apart may be missing. Identical values can stand only once. Like-named read-outs stand apart in the source and are kept apart here.

Tests used:
[1] = tested on: C. elegans unc-17 mutants
Experimental: Significance was calculated using Fisher’s method (one-sided comparisons; see 'Methods'). […] Worms were incubated on the plates for 60 min.
Locomotor phenotype analyses were done in 24-well plates with 1 mL of MYOB substrate (27.5 g Trizma HCl, 12 g Trizma Base, 230 g bacto tryptone, 10 g NaCl, 0.4 g cholesterol (95%)) seeded with 25 µL of OP50 Escherichia coli on each well. Each compound was added to the MYOB substrate before pouring to achieve the desired final concentrations of 30 µM or 60 µM after diffusion through the media. Synchronized young adult worms are transferred into each well using a platinum wire pick. A Leica MZ75 stereomicroscope was used to visualize the movement of worms on the solid substrate. The specific dominant locomotor phenotype (i.e. ‘Punc’, ‘paralyzed’, ‘coiler’ or ‘wild-type locomotion’) was scored after the touch on the head with a platinum wire over a ~3–5 s of observation. […] Coiled animals were not scored as paralyzed despite sometimes not responding to light touch.

[2] = tested on: Dirofilaria immitis microfilariae; assay: Dirofilaria immitis microfilariae immobility assay (DiroImager, 72 h)
In short: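 About 250 freshly purified microfilariae of the Missouri isolate per well in supplemented RPMI 1640, exposed to compound for 72 h. Motility scored by automated whole-plate optical imaging; medium with 1% DMSO as negative control.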

rat VAChT = molecular target: T1, rat VAChT (Rattus norvegicus, UniProt Q62666); assay: [3H]Vesamicol competitive radioligand binding, PC12 cells expressing ratVAChT; conditions: for specific binding in % of total binding (corrected by nonspecific binding NB), mean: rVAChT-PC12, 21°C, 1% DMSO
T1 construct: expressed in transfected cells; host or cells: rat PC12 (PC12 A123.7) cells, stably transfected; shared by Dr. Ali Roghani (Texas Tech University)
T1 sequence (Q62666 1-530): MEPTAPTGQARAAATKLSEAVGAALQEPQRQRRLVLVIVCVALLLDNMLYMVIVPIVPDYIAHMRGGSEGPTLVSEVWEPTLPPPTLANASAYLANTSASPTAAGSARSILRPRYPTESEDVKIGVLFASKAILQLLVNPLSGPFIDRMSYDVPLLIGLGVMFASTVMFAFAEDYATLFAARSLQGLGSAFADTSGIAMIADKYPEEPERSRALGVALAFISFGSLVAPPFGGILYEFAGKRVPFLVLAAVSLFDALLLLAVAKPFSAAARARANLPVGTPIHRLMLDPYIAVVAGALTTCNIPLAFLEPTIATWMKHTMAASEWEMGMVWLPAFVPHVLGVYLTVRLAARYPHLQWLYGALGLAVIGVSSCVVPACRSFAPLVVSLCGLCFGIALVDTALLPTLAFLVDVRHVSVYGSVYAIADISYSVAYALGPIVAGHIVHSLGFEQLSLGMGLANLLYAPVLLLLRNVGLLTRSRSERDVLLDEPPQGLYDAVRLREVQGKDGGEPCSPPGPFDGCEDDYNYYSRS

[3] = unc-17 (e795), 15 µM, 60 min, average of 3 biological repeats
[4] = unc-17 (e795), 15 µM, young adult, average of 3 biological repeats
[5] = unc-17 (e795), 30 µM, young adult, average of 3 biological repeats
[6] = unc-17 (e795), 60 µM, young adult, average of 3 biological repeats
[7] = unc-17 (md414), 15 µM, 60 min, adult worms, average of 3 biological repeats
[8] = unc-17 (md414), 30 µM, 60 min, average of 3 biological repeats
[9] = unc-17 (md414), 60 µM, 60 min, average of 3 biological repeats
[10] = unc-17 (md414), 15 µM, 60 min, single Bio Rep
[11] = unc-17 (md414), 30 µM, 60 min, single Bio Rep
[12] = unc-17 (md414), 60 µM, 60 min, single Bio Rep

O=[N+]([O-])c1ccc(N2CCN(CC3CCCCC3)CC2)cc1 [Nemacol-1]
P (paralyzed) worm count ([1]; unc-17 (e327), 60 µM, 60 min, single Bio Rep): 8 and 6 and 12
Fraction Coiled [1, 3]: 0.81
Fraction Jerky-Unc [1, 3]: 0.09
Fraction No Phenotype [1, 3]: 0.00
Fraction Parayzed [1, 3]: 0.09
Fraction Coiled [1, 4]: 0.74
Fraction Jerky-Unc [1, 4]: 0.24
Fraction No Phenotype [1, 4]: 0.00
Fraction Parayzed [1, 4]: 0.0185
Fraction Coiled [1, 5]: 0.83
Fraction Jerky-Unc [1, 5]: 0.0556
Fraction No Phenotype [1, 5]: 0.00
Fraction Parayzed [1, 5]: 0.11
Fraction Coiled [1, 6]: 0.63
Fraction Jerky-Unc [1, 6]: 0.0556
Fraction No Phenotype [1, 6]: 0.00
Fraction Parayzed [1, 6]: 0.31
Fraction Coiled [1, 7]: 0.19
Fraction Jerky-Unc [1, 7]: 0.60
Fraction No Phenotype [1, 7]: 0.21
Fraction Parayzed [1, 7]: 0.00
Fraction Coiled [1, 8]: 0.44
Fraction Jerky-Unc [1, 8]: 0.47
Fraction No Phenotype [1, 8]: 0.037
Fraction Parayzed [1, 8]: 0.06
Fraction Coiled [1, 9]: 0.59
Fraction Jerky-Unc [1, 9]: 0.27
Fraction No Phenotype [1, 9]: 0.00
Fraction Parayzed [1, 9]: 0.13
Fraction Coiled, Averages of 3 biological repeats ([1]; unc-17 (md414), 15 µM, 60 min): 0.25
Fraction Jerky-Unc, Averages of 3 biological repeats ([1]; unc-17 (md414), 15 µM, 60 min): 0.52
Fraction No Phenotype, Averages of 3 biological repeats ([1]; unc-17 (md414), 15 µM, 60 min): 0.23
Fraction Parayzed, Averages of 3 biological repeats ([1]; unc-17 (md414), 15 µM, 60 min): 0.00
C1 (loose coil) worm count [1, 10]: 1 and 2
Fraction Jerky-Unc [1, 10]: 0.35 and 0.6111 and 0.5882
Fraction Parayzed [1, 10]: 0
J (jerky-unc) worm count [1, 10]: 11 and 7 and 10
P (paralyzed) worm count [1, 10]: 0
Fraction Coiled, Averages of 3 biological repeats ([1]; unc-17 (md414), 30 µM, 60 min): 0.54
Fraction Jerky-Unc, Averages of 3 biological repeats ([1]; unc-17 (md414), 30 µM, 60 min): 0.44
Fraction No Phenotype, Averages of 3 biological repeats ([1]; unc-17 (md414), 30 µM, 60 min): 0.00
Fraction Parayzed, Averages of 3 biological repeats ([1]; unc-17 (md414), 30 µM, 60 min): 0.0185
C1 (loose coil) worm count [1, 11]: 4 and 2 and 3
C2 (tight coil) worm count [1, 11]: 5 and 8 and 6
Fraction Coiled [1, 11]: 0.50 and 0.63
Fraction Jerky-Unc [1, 11]: 0.5 and 0.4444 and 0.375
Fraction No Phenotype [1, 11]: 0.00
J (jerky-unc) worm count [1, 11]: 8 and 9 and 6
NP (no phene) worm count [1, 11]: 0
Fraction Coiled, Averages of 3 biological repeats ([1]; unc-17 (md414), 60 µM, 60 min): 0.49
Fraction Jerky-Unc, Averages of 3 biological repeats ([1]; unc-17 (md414), 60 µM, 60 min): 0.28
Fraction No Phenotype, Averages of 3 biological repeats ([1]; unc-17 (md414), 60 µM, 60 min): 0.00
Fraction Parayzed, Averages of 3 biological repeats ([1]; unc-17 (md414), 60 µM, 60 min): 0.22
C2 (tight coil) worm count [1, 12]: 6
Fraction Coiled [1, 12]: 0.56 and 0.59 and 0.33
Fraction No Phenotype [1, 12]: 0.00
J (jerky-unc) worm count [1, 12]: 6 and 3
NP (no phene) worm count [1, 12]: 0
% effect (motility), DIROIM MF ([2]; 0.016 µM): 0%
% effect (motility), DIROIM MF ([2]; 0.08 µM): 0%
% effect (motility), DIROIM MF ([2]; 0.4 µM): 0%
% effect (motility), DIROIM MF ([2]; 2 µM): 20%
% effect (motility), DIROIM MF ([2]; 10 µM): 100%
% effect (motility), DIROIM MF ([2]; 50 µM): 100%
EC50 ([2]; Dirofilaria immitis, 72 h, read-out: Dirofilaria immitis filariae EC50): 2200 nM
activity ratio, mammalian VAChT Ki to C. elegans in vivo EC50 (rat VAChT): 0.11
Ki (rat VAChT; Ki, each of two biological replicates): 875 nM and 661 nM
specific binding in % of total binding (corrected by nonspecific binding NB), mean (rat VAChT; competitor 1.00E-04 M, experiment 2019-11-21, 2.20E-09 M 3H-vesamicol, 90 min): 2.84%
specific binding in % of total binding (corrected by nonspecific binding NB), mean (rat VAChT; competitor 1.00E-05 M, experiment 2019-10-30, 2.92E-09 M 3H-vesamicol, 120 min): 34%
specific binding in % of total binding (corrected by nonspecific binding NB), mean (rat VAChT; competitor 1.00E-05 M, experiment 2019-11-21, 2.20E-09 M 3H-vesamicol, 90 min): 10%
specific binding in % of total binding (corrected by nonspecific binding NB), mean (rat VAChT; competitor 1.00E-06 M, experiment 2019-10-30, 2.92E-09 M 3H-vesamicol, 120 min): 51%
specific binding in % of total binding (corrected by nonspecific binding NB), mean (rat VAChT; competitor 1.00E-06 M, experiment 2019-11-21, 2.20E-09 M 3H-vesamicol, 90 min): 52%
specific binding in % of total binding (corrected by nonspecific binding NB), mean (rat VAChT; competitor 1.00E-07 M, experiment 2019-10-30, 2.92E-09 M 3H-vesamicol, 120 min): 86%
specific binding in % of total binding (corrected by nonspecific binding NB), mean (rat VAChT; competitor 1.00E-07 M, experiment 2019-11-21, 2.20E-09 M 3H-vesamicol, 90 min): 82%
specific binding in % of total binding (corrected by nonspecific binding NB), mean (rat VAChT; competitor 1.00E-08 M, experiment 2019-10-30, 2.92E-09 M 3H-vesamicol, 120 min): 94%
specific binding in % of total binding (corrected by nonspecific binding NB), mean (rat VAChT; competitor 1.00E-08 M, experiment 2019-11-21, 2.20E-09 M 3H-vesamicol, 90 min): 90%
specific binding in % of total binding (corrected by nonspecific binding NB), mean (rat VAChT; competitor 1.00E-09 M, experiment 2019-10-30, 2.92E-09 M 3H-vesamicol, 120 min): 96%
specific binding in % of total binding (corrected by nonspecific binding NB), mean (rat VAChT; competitor 1.00E-09 M, experiment 2019-11-21, 2.20E-09 M 3H-vesamicol, 90 min): 88%
specific binding in % of total binding (corrected by nonspecific binding NB), mean (rat VAChT; competitor 1.00E-10 M, experiment 2019-10-30, 2.92E-09 M 3H-vesamicol, 120 min): 95%
specific binding in % of total binding (corrected by nonspecific binding NB), mean (rat VAChT; competitor 1.00E-10 M, experiment 2019-11-21, 2.20E-09 M 3H-vesamicol, 90 min): 92%
specific binding in % of total binding (corrected by nonspecific binding NB), mean (rat VAChT; competitor 1.00E-11 M, experiment 2019-10-30, 2.92E-09 M 3H-vesamicol, 120 min): 94%
rat VAChT Ki fold difference to vesamicol (rat VAChT; fold less affinity than vesamicol): 37 fold
Ki (rat VAChT; in vitro mammalian VAChT Ki): 770 nM
Ki (rat VAChT; ratVAChT Ki, [3H]Vesamicol displacement, mean): 768 nM
